Test results: the kinase profiling compilation of Christmann-Franck et al. (2016)

How the values were obtained:
Assay in all cases: KINOMEscan competition binding
Settings in all cases: compound 10.0 µM
LIMK1 (human) = LIMK1 (human) (UniProt P53667)
FGFR3 (human) = FGFR3 (human) (UniProt P22607)
STK33 (human) = STK33 (human) (UniProt Q9BYT3)
EPHA2 (human) = EPHA2 (human) (UniProt P29317)
EPHA4 (human) = EPHA4 (human) (UniProt P54764)
ADCK4 (human) = ADCK4 (human) (UniProt Q96D53)
CSK (human) = CSK (human) (UniProt P41240)
STK3 (human) = STK3 (human) (UniProt Q13188)
BMPR2 (human) = BMPR2 (human) (UniProt Q13873)
Chain of BMPR2 (human) (Q13873 whole entry, looked up): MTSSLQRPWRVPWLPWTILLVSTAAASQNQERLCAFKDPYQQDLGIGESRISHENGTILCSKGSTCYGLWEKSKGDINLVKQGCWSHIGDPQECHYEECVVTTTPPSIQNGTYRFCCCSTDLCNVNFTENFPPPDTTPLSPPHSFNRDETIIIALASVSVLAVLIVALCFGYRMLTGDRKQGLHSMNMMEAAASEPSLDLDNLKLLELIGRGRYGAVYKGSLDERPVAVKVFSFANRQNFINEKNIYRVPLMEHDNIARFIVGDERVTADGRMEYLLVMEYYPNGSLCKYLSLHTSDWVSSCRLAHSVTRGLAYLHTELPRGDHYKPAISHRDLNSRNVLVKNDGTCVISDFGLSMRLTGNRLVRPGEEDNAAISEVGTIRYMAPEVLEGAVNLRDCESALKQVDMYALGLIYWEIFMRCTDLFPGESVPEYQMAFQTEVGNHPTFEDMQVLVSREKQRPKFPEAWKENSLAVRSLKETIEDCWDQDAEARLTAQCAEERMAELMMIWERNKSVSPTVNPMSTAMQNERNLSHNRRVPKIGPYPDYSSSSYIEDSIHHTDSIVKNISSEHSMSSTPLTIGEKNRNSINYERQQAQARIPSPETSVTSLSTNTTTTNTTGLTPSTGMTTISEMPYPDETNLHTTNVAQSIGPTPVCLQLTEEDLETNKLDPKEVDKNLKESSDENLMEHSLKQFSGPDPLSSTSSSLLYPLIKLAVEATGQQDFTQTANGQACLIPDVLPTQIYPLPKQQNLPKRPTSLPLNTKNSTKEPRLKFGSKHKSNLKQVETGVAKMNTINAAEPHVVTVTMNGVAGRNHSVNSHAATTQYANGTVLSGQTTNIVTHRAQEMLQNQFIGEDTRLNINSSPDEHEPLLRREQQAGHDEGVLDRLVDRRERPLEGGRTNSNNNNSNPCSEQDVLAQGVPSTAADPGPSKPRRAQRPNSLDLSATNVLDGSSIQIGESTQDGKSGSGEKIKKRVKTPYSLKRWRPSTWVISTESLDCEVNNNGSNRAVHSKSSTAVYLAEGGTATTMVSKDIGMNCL

CDK8 (human) = CDK8 (human) (UniProt P49336)
PLK4 (human) = PLK4 (human) (UniProt O00444)
FES (human) = FES (human) (UniProt P07332)
SRPK2 (human) = SRPK2 (human) (UniProt P78362)
KDR (human) = KDR (human) (UniProt P35968)
Chain of KDR (human) (P35968 whole entry, looked up): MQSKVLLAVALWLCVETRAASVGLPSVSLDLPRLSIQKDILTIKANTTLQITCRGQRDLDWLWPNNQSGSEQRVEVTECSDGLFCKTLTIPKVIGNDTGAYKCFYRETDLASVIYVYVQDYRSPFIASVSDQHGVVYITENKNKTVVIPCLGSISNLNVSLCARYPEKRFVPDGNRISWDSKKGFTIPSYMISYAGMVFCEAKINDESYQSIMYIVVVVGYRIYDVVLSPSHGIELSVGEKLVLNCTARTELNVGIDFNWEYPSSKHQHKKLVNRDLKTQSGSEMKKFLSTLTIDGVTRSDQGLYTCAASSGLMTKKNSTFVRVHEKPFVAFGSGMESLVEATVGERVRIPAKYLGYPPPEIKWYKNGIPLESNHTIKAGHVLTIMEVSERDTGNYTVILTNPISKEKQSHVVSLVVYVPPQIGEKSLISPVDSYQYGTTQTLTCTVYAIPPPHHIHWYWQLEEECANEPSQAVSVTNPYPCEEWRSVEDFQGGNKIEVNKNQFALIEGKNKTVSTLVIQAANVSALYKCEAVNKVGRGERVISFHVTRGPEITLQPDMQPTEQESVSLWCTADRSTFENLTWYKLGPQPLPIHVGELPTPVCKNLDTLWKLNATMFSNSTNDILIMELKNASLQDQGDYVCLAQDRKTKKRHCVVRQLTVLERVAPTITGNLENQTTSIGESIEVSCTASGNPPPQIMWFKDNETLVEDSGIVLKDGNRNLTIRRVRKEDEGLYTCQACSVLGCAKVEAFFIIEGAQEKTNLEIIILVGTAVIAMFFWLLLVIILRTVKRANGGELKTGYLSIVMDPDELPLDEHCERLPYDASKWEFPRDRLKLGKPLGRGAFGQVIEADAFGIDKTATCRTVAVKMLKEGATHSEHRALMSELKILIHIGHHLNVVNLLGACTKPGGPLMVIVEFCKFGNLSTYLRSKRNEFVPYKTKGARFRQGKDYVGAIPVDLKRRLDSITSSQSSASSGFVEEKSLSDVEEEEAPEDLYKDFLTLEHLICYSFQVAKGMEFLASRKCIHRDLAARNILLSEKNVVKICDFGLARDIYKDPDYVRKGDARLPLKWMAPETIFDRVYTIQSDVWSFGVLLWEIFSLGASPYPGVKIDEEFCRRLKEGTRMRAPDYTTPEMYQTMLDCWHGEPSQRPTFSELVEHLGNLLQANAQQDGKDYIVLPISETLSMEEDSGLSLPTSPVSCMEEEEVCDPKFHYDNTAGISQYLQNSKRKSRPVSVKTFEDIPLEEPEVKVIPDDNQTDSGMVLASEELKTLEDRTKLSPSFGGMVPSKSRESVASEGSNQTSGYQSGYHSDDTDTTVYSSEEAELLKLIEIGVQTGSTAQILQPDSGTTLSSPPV

ITK (human) = ITK (human) (UniProt Q08881)
Chain of ITK (human) (Q08881 whole entry, looked up): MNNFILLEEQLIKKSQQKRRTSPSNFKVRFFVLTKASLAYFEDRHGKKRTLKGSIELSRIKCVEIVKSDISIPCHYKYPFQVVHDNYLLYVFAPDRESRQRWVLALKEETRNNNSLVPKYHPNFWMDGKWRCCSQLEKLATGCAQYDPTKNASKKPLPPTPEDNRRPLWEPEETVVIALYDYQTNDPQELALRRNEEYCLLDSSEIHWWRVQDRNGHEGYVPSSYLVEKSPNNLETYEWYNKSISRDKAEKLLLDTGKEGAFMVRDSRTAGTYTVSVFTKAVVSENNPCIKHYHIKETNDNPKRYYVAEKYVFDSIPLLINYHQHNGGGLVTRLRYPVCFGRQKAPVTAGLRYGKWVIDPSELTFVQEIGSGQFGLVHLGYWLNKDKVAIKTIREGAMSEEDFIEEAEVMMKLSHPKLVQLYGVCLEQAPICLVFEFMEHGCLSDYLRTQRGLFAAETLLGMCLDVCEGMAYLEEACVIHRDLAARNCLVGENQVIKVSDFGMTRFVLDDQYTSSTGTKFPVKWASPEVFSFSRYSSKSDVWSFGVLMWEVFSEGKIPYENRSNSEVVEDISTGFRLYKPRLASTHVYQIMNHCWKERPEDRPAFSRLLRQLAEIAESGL

CDK18 (human) = CDK18 (human) (UniProt Q07002)
Chain of CDK18 (human) (Q07002 whole entry, looked up): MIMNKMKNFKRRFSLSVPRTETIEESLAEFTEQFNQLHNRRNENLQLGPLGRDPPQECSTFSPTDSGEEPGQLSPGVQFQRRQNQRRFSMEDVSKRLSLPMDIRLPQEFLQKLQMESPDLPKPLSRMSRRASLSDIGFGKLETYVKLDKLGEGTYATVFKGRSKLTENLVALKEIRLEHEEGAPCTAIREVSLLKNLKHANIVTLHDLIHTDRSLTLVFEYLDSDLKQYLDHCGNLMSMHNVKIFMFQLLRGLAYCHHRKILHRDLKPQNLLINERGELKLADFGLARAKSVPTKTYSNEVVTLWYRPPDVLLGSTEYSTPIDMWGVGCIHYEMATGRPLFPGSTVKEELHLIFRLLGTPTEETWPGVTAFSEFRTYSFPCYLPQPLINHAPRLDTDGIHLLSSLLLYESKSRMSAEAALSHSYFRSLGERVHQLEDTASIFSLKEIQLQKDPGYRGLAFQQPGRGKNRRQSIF

PAK1 (human) = PAK1 (human) (UniProt Q13153)
IGF1R (human) = IGF1R (human) (UniProt P08069)
EPHB4 (human) = EPHB4 (human) (UniProt P54760)
NTRK2 (human) = NTRK2 (human) (UniProt Q16620)
CDK9 (human) = CDK9 (human) (UniProt P50750)
CDC42BPG (human) = CDC42BPG (human) (UniProt Q6DT37)
PIM3 (human) = PIM3 (human) (UniProt Q86V86)
TEC (human) = TEC (human) (UniProt P42680)
STK17B (human) = STK17B (human) (UniProt O94768)
PDGFRB (human) = PDGFRB (human) (UniProt P09619)
[1] = system: FGFR3 (human), P22607 [G697C]
PIM2 (human) = PIM2 (human) (UniProt Q9P1W9)
ABL2 (human) = ABL2 (human) (UniProt P42684)
Chain of ABL2 (human) (P42684 whole entry, looked up): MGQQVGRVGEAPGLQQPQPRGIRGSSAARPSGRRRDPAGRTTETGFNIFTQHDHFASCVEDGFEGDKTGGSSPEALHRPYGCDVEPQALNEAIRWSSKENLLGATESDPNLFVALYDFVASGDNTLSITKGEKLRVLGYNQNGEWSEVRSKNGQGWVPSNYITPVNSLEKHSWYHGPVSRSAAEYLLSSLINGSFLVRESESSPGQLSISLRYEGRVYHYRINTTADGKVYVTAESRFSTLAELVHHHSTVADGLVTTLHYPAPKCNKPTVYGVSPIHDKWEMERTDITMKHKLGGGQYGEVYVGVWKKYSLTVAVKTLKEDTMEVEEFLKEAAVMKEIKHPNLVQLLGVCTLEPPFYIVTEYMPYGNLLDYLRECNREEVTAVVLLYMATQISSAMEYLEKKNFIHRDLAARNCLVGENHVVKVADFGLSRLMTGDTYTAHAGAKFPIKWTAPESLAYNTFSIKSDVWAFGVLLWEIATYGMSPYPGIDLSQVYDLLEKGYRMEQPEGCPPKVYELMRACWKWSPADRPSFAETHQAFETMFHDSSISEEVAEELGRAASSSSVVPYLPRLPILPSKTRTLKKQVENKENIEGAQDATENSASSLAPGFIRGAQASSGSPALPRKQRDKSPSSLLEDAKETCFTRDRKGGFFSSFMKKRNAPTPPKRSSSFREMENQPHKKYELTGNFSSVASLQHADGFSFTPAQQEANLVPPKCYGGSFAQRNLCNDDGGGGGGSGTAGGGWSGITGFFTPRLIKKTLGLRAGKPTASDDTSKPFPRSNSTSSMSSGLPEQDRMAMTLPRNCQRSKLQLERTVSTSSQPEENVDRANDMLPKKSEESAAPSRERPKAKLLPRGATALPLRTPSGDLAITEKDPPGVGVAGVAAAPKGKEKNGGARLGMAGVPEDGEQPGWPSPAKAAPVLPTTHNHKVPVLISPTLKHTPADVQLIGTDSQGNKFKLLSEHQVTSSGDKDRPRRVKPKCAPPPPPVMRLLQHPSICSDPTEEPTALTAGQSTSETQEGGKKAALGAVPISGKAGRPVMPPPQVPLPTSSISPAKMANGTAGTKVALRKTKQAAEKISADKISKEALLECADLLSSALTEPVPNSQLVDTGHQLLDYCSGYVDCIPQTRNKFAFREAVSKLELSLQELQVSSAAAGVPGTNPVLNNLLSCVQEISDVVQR

EPHA1 (human) = EPHA1 (human) (UniProt P21709)
PRKACB (human) = PRKACB (human) (UniProt P22694)
MAP2K1 (human) = MAP2K1 (human) (UniProt Q02750)
CDK17 (human) = CDK17 (human) (UniProt Q00537)
SGK110 (human) = SGK110 (human) (UniProt P0C264)
Chain of SGK110 (human) (P0C264 whole entry, looked up): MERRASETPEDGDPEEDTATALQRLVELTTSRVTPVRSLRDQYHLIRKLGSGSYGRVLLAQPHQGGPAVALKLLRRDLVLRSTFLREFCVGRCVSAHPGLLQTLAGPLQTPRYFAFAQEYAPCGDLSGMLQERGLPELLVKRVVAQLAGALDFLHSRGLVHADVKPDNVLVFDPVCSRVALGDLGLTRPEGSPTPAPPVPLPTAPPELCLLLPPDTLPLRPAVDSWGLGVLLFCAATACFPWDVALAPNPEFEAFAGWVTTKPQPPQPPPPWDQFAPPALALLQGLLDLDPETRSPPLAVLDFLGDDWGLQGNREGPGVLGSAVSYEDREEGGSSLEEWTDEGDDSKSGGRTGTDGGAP

IKBKB (human) = IKBKB (human) (UniProt O14920)

For `COc1ccc(N(C(=O)Oc2cc(C(=O)Nc3cccc(C(F)(F)F)c3)ccc2C)c2ccnc(Nc3ccc(N4CCN(C)CC4)cc3)n2)c(OC)c1`, the kinase still bound, per cent of control (LIMK1 (human)) was 2.8%, the kinase still bound, per cent of control (FGFR3 (human)) was 3.7% and the kinase still bound, per cent of control (STK33 (human)) was 100%. For the same compound, the kinase still bound, per cent of control (EPHA2 (human)) was 4.2%, the kinase still bound, per cent of control (EPHA4 (human)) was 2.4% and the kinase still bound, per cent of control (ADCK4 (human)) was 100%. It also gave a kinase still bound, per cent of control (CSK (human)) of 1.2%, a kinase still bound, per cent of control (STK3 (human)) of 100% and a kinase still bound, per cent of control (BMPR2 (human)) of 1.1%. For the same compound, the kinase still bound, per cent of control (CDK8 (human)) was 100%, the kinase still bound, per cent of control (PLK4 (human)) was 100% and the kinase still bound, per cent of control (FES (human)) was 0.85%. It also gave a kinase still bound, per cent of control (SRPK2 (human)) of 100%, a kinase still bound, per cent of control (KDR (human)) of 4.5% and a kinase still bound, per cent of control (ITK (human)) of 100%. For the same compound, the kinase still bound, per cent of control (CDK18 (human)) was 100%, the kinase still bound, per cent of control (PAK1 (human)) was 100% and the kinase still bound, per cent of control (IGF1R (human)) was 100%. For the same compound, the kinase still bound, per cent of control (EPHB4 (human)) was 0.3%, the kinase still bound, per cent of control (NTRK2 (human)) was 24% and the kinase still bound, per cent of control (CDK9 (human)) was 100%. The kinase still bound, per cent of control (CDC42BPG (human)) was 100%, the kinase still bound, per cent of control (PIM3 (human)) was 100% and the kinase still bound, per cent of control (TEC (human)) was 0.2%. For the same compound, the kinase still bound, per cent of control (STK17B (human)) was 100%, the kinase still bound, per cent of control (PDGFRB (human)) was 0.45% and the kinase still bound, per cent of control [1] was 8.6%. It also gave a kinase still bound, per cent of control (PIM2 (human)) of 100%, a kinase still bound, per cent of control (ABL2 (human)) of 0.35% and a kinase still bound, per cent of control (EPHA1 (human)) of 0.75%. It also gave a kinase still bound, per cent of control (PRKACB (human)) of 27%, a kinase still bound, per cent of control (MAP2K1 (human)) of 100% and a kinase still bound, per cent of control (CDK17 (human)) of 100%.
In the case of `CCOc1cc(N2CCC(O)CC2)ccc1Nc1ncc2c(n1)N(C)c1ccccc1C(=O)N2C`, the kinase still bound, per cent of control (LIMK1 (human)) is reported as 100%, the kinase still bound, per cent of control (FGFR3 (human)) is reported as 100% and the kinase still bound, per cent of control (STK33 (human)) is reported as 100%. For the same compound, the kinase still bound, per cent of control (EPHA2 (human)) was 100%, the kinase still bound, per cent of control (EPHA4 (human)) was 100% and the kinase still bound, per cent of control (ADCK4 (human)) was 100%. For the same compound, the kinase still bound, per cent of control (CSK (human)) was 100%, the kinase still bound, per cent of control (STK3 (human)) was 100% and the kinase still bound, per cent of control (BMPR2 (human)) was 100%. For the same compound, the kinase still bound, per cent of control (CDK8 (human)) was 100%, the kinase still bound, per cent of control (PLK4 (human)) was 2.8% and the kinase still bound, per cent of control (FES (human)) was 100%. It also gave a kinase still bound, per cent of control (SRPK2 (human)) of 100%, a kinase still bound, per cent of control (KDR (human)) of 100% and a kinase still bound, per cent of control (ITK (human)) of 100%. The kinase still bound, per cent of control (CDK18 (human)) was 100%, the kinase still bound, per cent of control (PAK1 (human)) was 100% and the kinase still bound, per cent of control (IGF1R (human)) was 100%. The kinase still bound, per cent of control (EPHB4 (human)) was 100%, the kinase still bound, per cent of control (NTRK2 (human)) was 100% and the kinase still bound, per cent of control (CDK9 (human)) was 100%. It also gave a kinase still bound, per cent of control (CDC42BPG (human)) of 100%, a kinase still bound, per cent of control (PIM3 (human)) of 100% and a kinase still bound, per cent of control (SGK110 (human)) of 100%. The kinase still bound, per cent of control (TEC (human)) was 100%, the kinase still bound, per cent of control (STK17B (human)) was 100% and the kinase still bound, per cent of control (PDGFRB (human)) was 100%. It also gave a kinase still bound, per cent of control [1] of 100%, a kinase still bound, per cent of control (PIM2 (human)) of 100% and a kinase still bound, per cent of control (ABL2 (human)) of 100%. It also gave a kinase still bound, per cent of control (EPHA1 (human)) of 100%, a kinase still bound, per cent of control (PRKACB (human)) of 100% and a kinase still bound, per cent of control (IKBKB (human)) of 100%. It also gave a kinase still bound, per cent of control (MAP2K1 (human)) of 100% and a kinase still bound, per cent of control (CDK17 (human)) of 100%.
For `Cc1cn(-c2cc(C(=O)Nc3ccc(C)c(NC(=O)c4ccno4)c3)cc(C(F)(F)F)c2)cn1`, the kinase still bound, per cent of control (LIMK1 (human)) was 100%, the kinase still bound, per cent of control (FGFR3 (human)) was 100% and the kinase still bound, per cent of control (STK33 (human)) was 100%. The kinase still bound, per cent of control (EPHA2 (human)) was 1.6%, the kinase still bound, per cent of control (EPHA4 (human)) was 4% and the kinase still bound, per cent of control (ADCK4 (human)) was 100%. The kinase still bound, per cent of control (CSK (human)) was 29%, the kinase still bound, per cent of control (STK3 (human)) was 100% and the kinase still bound, per cent of control (BMPR2 (human)) was 100%. For the same compound, the kinase still bound, per cent of control (CDK8 (human)) was 100%, the kinase still bound, per cent of control (PLK4 (human)) was 100% and the kinase still bound, per cent of control (FES (human)) was 100%. It also gave a kinase still bound, per cent of control (SRPK2 (human)) of 100%, a kinase still bound, per cent of control (KDR (human)) of 100% and a kinase still bound, per cent of control (ITK (human)) of 100%. It also gave a kinase still bound, per cent of control (CDK18 (human)) of 100%, a kinase still bound, per cent of control (PAK1 (human)) of 100% and a kinase still bound, per cent of control (IGF1R (human)) of 100%. It also gave a kinase still bound, per cent of control (EPHB4 (human)) of 15%, a kinase still bound, per cent of control (NTRK2 (human)) of 100% and a kinase still bound, per cent of control (CDK9 (human)) of 100%. For the same compound, the kinase still bound, per cent of control (CDC42BPG (human)) was 100%, the kinase still bound, per cent of control (PIM3 (human)) was 100% and the kinase still bound, per cent of control (SGK110 (human)) was 100%. For the same compound, the kinase still bound, per cent of control (TEC (human)) was 100%, the kinase still bound, per cent of control (STK17B (human)) was 100% and the kinase still bound, per cent of control (PDGFRB (human)) was 0%. The kinase still bound, per cent of control [1] was 100%, the kinase still bound, per cent of control (PIM2 (human)) was 100% and the kinase still bound, per cent of control (ABL2 (human)) was 1.8%. For the same compound, the kinase still bound, per cent of control (EPHA1 (human)) was 100%, the kinase still bound, per cent of control (PRKACB (human)) was 100% and the kinase still bound, per cent of control (IKBKB (human)) was 100%. For the same compound, the kinase still bound, per cent of control (MAP2K1 (human)) was 100% and the kinase still bound, per cent of control (CDK17 (human)) was 100%.
`COc1cc(N2CCC(C(N)=O)CC2)ccc1Nc1nc(N)c(Cl)c(Nc2ccccc2S(=O)(=O)C(C)C)n1` was tested, and the kinase still bound, per cent of control (LIMK1 (human)) was 100%, the kinase still bound, per cent of control (FGFR3 (human)) was 100% and the kinase still bound, per cent of control (STK33 (human)) was 4.5%. It also gave a kinase still bound, per cent of control (EPHA2 (human)) of 100%, a kinase still bound, per cent of control (EPHA4 (human)) of 100% and a kinase still bound, per cent of control (ADCK4 (human)) of 0%. It also gave a kinase still bound, per cent of control (CSK (human)) of 100%, a kinase still bound, per cent of control (STK3 (human)) of 100% and a kinase still bound, per cent of control (BMPR2 (human)) of 100%. For the same compound, the kinase still bound, per cent of control (CDK8 (human)) was 100%, the kinase still bound, per cent of control (PLK4 (human)) was 2.8% and the kinase still bound, per cent of control (FES (human)) was 2.3%. It also gave a kinase still bound, per cent of control (SRPK2 (human)) of 100%, a kinase still bound, per cent of control (KDR (human)) of 100% and a kinase still bound, per cent of control (ITK (human)) of 100%. For the same compound, the kinase still bound, per cent of control (CDK18 (human)) was 100%, the kinase still bound, per cent of control (PAK1 (human)) was 100% and the kinase still bound, per cent of control (IGF1R (human)) was 0.65%. It also gave a kinase still bound, per cent of control (EPHB4 (human)) of 100%, a kinase still bound, per cent of control (NTRK2 (human)) of 100% and a kinase still bound, per cent of control (CDK9 (human)) of 100%. For the same compound, the kinase still bound, per cent of control (CDC42BPG (human)) was 100%, the kinase still bound, per cent of control (PIM3 (human)) was 100% and the kinase still bound, per cent of control (SGK110 (human)) was 100%. The kinase still bound, per cent of control (TEC (human)) was 100%, the kinase still bound, per cent of control (STK17B (human)) was 100% and the kinase still bound, per cent of control (PDGFRB (human)) was 100%. The kinase still bound, per cent of control [1] was 100%, the kinase still bound, per cent of control (PIM2 (human)) was 100% and the kinase still bound, per cent of control (ABL2 (human)) was 100%. It also gave a kinase still bound, per cent of control (EPHA1 (human)) of 15%, a kinase still bound, per cent of control (PRKACB (human)) of 100% and a kinase still bound, per cent of control (IKBKB (human)) of 100%. For the same compound, the kinase still bound, per cent of control (MAP2K1 (human)) was 100% and the kinase still bound, per cent of control (CDK17 (human)) was 100%.
